Marks after values point to notes of the source that are not given here.
Assays:
[1] = Measurement of LogP values by HPLC on reversed phase columns (EEC directive 79/831 Annex V.A8); assay type: physicochemical; conditions: for chromatographic logP: method [a]: LC-UV, acidic range
Experimental: Calibration was done with straight-chain alkan2-ones (with 3 to 16 carbon atoms) with known LogP values (measurement of LogP values using retention times with linear interpolation between successive alkanones). Lambda-max-values were determined using UV-spectra from 200 nm to 400 nm and the peak values of the chromatographic signals

Sphaerotheca fuliginea = test: In vivo preventive test on Sphaerotheca fuliginea (powdery mildew on cucurbits); conditions: Podosphaera fuliginea, 192 h; 500 ppm of active ingredient; preventive spray on gherkin; evaluated 8 days after inoculation; read-out: efficacy
Experimental: (§1) The active ingredients were made soluble and homogenized in a mixture of Dimethyl sulfoxide/Acetone//Tween® 80 and then diluted in water to the desired concentration. The young plants of gherkin were treated by spraying the active ingredient prepared as described above. Control plants were treated only with an aqueous solution of Acetone/Dimethyl sulfoxide/Tween® 80. After 24 hours, the plants were contaminated by spraying the leaves with an aqueous suspension of Sphaerotheca fuliginea spores.

[2] = test system: Colletotrichum lindemuthianum; test: In vivo preventive test on Colletotrichum lindemuthianum (leaf spot on bean); conditions: 168 h, 500 ppm of active ingredient, preventive spray on bean, evaluated 7 days after inoculation, read-out: efficacy
Experimental: as §1, with “bean” for “gherkin”, “Colletotrichum lindemuthianum” for “Sphaerotheca fuliginea”

Pyrenophora teres = test: In vivo preventive test on Pyrenophora teres (net blotch on barley); conditions: 240 h, 500 ppm of active ingredient, preventive spray on barley, evaluated 10 days after inoculation, read-out: efficacy
Experimental: as §1, with “barley” for “gherkin”, “Pyrenophora teres” for “Sphaerotheca fuliginea”

Alternaria alternata = Alternaria alternata in vitro cell test; assay type: cell-based; conditions: 120 h, 20 ppm of active ingredient, liquid culture, 5 days incubation, read-out: efficacy (inhibition of fungal growth)
Experimental: • Solvent: DMSO • Culture medium: 14.6 g anhydrous D-glucose (VWR), 7.1 g Mycological Peptone (Oxoid), 1.4 g granulated Yeast Extract (Merck), QSP 1 liter • Inoculum: spores suspension Fungicides were solubilized in DMSO and the solution used to prepare the required range of concentrations. […] A spore suspension of A. alternata was prepared and diluted to the desired spore density. Fungicides were evaluated for their ability to inhibit spore germination and mycelium growth in liquid culture assay. The compounds were added in the desired concentration to the culture medium with spores. After 5 days incubation, fungi-toxicity of compounds was determined by spectrometric measurement of mycelium growth. Inhibition of fungal growth was determined by comparing the absorbance values in wells containing the fungicides with the absorbance in control wells without fungicides.

Botrytis cinerea = test: In vivo preventive test on Botrytis cinerea (grey mould); conditions: 500 ppm of active ingredient, preventive spray on gherkin or cabbage, evaluated 4 to 5 days after inoculation, read-out: efficacy
Experimental: as §1, with “gherkin or cabbage” for “gherkin”, “Botrytis cinerea” for “Sphaerotheca fuliginea”

Alternaria brassicae = test: In vivo preventive test on Alternaria brassicae (leaf spot on radish or cabbage); conditions: 144 h, 500 ppm of active ingredient, preventive spray on radish or cabbage, evaluated 6 days after inoculation, read-out: efficacy
Experimental: as §1, with “radish or cabbage” for “gherkin”, “Alternaria brassicae” for “Sphaerotheca fuliginea”

Pyricularia Oryzae = test: microbe, parasite or virus in culture; assay type: cell-based; conditions: 120 h, read-out: efficacy (inhibition of fungal growth)
[3] = 0.1% formic acid in water and acetonitrile, compounds of formula (I-1), Table 1
[4] = 0.1% formic acid, intermediates of formula (4), Table 9

Structure (SMILES) | LogP [1] | also measured
Cc1cc(C(=O)O)c(Oc2cccc(C)c2F)nn1 [Compound 1-02] | 1.32^[a] | 
Cc1ccc(C[C@H]2CON=C(c3cc(C(Cl)Cl)nnc3Oc3cccc(C4CC4)c3F)N2)c(C)c1 [Compound I-021, (5S)-3-[3-(3-cyclopropyl-2-fluorophenoxy)-6-(dichloromethyl)pyridazin-4-yl]-5-(2,4-dimethylbenzyl)-5,6-dihydro-4H-1,2,4-oxadiazine] |  | chromatographic logP [1, 3]: 5.11
Cc1ccc(C)c(CC(N)CCl)c1.Cl (centres unmarked) [Compound 13-03] | 1.13[a] | 
Cc1ccc(CC(CCl)NC(=O)c2cc(C)nnc2Oc2cccc(Cl)c2)c(Br)c1 (centres unmarked) [Compound 14-01] | 4.51^[a] | 
Cc1ccc(CC(CCl)NC(=NO)c2cc(C)nnc2Oc2cccc(Cl)c2)c(Cl)c1 (racemic) [Compound 15-03] |  | chromatographic logP ([1]; 0.1% formic acid, intermediates of formula (15), Table 15): 3.78
Cc1ccc(CC(CCl)NC(=O)c2cc(C)nnc2Oc2cccc(C3(F)CC3)c2)c(C)c1 (centres unmarked) [Compound 14-10] | 4.58^[a] | 
Clc1ccc(CC2CON=C(c3cc(Cl)nnc3Oc3cccc(C4(Cl)CC4)c3)N2)c(Cl)c1 (racemic) [Compound I-024, (5RS)-3-{6-chloro-3-[3-(1-chlorocyclopropyl)phenoxy]pyridazin-4-yl}-5-(2,4-dichlorobenzyl)-5,6-dihydro-4H-1,2,4-oxadiazine] |  | chromatographic logP [1, 3]: 4.93
Cc1ccc(CC(CCl)NC(=NO)c2cc(C)nnc2Oc2cccc(C)c2F)c(Cl)c1 (centres unmarked) [Compound 15-02] | 3.75^[a] | 
Cc1cc(C)cc(CC(CCl)NC(=O)c2cc(C)nnc2Oc2cccc(C)c2F)c1 (centres unmarked) [Compound 14-04] | 4.47^[a] | 
Cc1ccc(C)c(CC(CCl)NC(=NO)c2cc(C)nnc2Oc2cccc(C)c2F)c1 (centres unmarked) [Compound 15-06] | 3.74^[a] | 
Cc1cc(C(=O)OC(C)C)c(Oc2cccc(C3(F)CC3)c2)nn1 [Compound 1-06] | 4.73^[a] | 
Cc1ccc(CC(CON2C(=O)c3ccccc3C2=O)NC(=O)c2cc(C)nnc2Oc2cccc(Cl)c2)c(C)c1 (racemic) [Compound 3-01, 3-(3-chlorophenoxy)-N-{(2RS)-1-(2,4-dimethylphenyl)-3-[(1,3-dioxo-1,3-dihydro-2H-isoindol-2-yl)oxy]propan-2-yl}-6-methylpyridazine-4-carboxamide] |  | chromatographic logP ([1]; 0.1% formic acid, intermediates of formula (3), Table 7): 4.47
NOCC(Cc1ccc(Cl)cc1Cl)NC(=O)c1cc(Cl)nnc1Oc1cccc(C2CC2)c1F (racemic) [Compound 4-02, 6-chloro-3-(3-cyclopropyl-2-fluoro-phenoxy)-N-[(1RS)-1-(aminooxymethyl)-2-(2,4-dichlorophenyl)ethyl]pyridazine-4-carboxamide] |  | chromatographic logP [1, 4]: 3.7
Cc1ccc(CC2CON=C(c3cc(Cl)nnc3Oc3cccc(Cl)c3)N2)c(Cl)c1 (racemic) [Compound I-017, (5RS)-3-[6-chloro-3-(3-chlorophenoxy)pyridazin-4-yl]-5-(2-chloro-4-methylbenzyl)-5,6-dihydro-4H-1,2,4-oxadiazine] |  | chromatographic logP [1, 3]: 4.44
Cc1ccc(CC(N)CCl)c(C)c1.Cl (centres unmarked) [Compound 13-04] | 1.24[a] | 
Cc1ccc(C)c(CC(CCl)NC(=O)c2cc(C)nnc2Oc2cccc(C)c2F)c1 (centres unmarked) [Compound 14-08] | 4.37^[a] | 
Cc1cc(C)cc(CC(CCl)NC(=NO)c2cc(C)nnc2Oc2cccc(Cl)c2F)c1 (centres unmarked) [Compound 15-04] | 3.98^[a] | 

Structure (SMILES) | LogP [1] | also measured
Cc1cc(C2=NOCC(Cc3ccc(Cl)cc3Cl)N2)c(Oc2cccc(C3(Cl)CC3)c2)nn1 (racemic) [Compound I-022, (5RS)-3-{3-[3-(1-chlorocyclopropyl)phenoxy]-6-methylpyridazin-4-yl}-5-(2,4-dichlorobenzyl)-5,6-dihydro-4H-1,2,4-oxadiazine] |  | pest or weed control at 500 ppm (Sphaerotheca fuliginea): 90 to 100%; chromatographic logP [1, 3]: 4.51; pest or weed control at 500 ppm [2]: 90 to 100%; pest or weed control at 500 ppm (Pyrenophora teres): 90 to 100%; inhibition at 20 ppm (Alternaria alternata): 90 to 100%; pest or weed control at 500 ppm (Botrytis cinerea): 90 to 100%; pest or weed control at 500 ppm (Alternaria brassicae): 90 to 100%; inhibition at 20 ppm (Pyricularia Oryzae): 70 to 79%
Cc1ccc(CC(CON)NC(=O)c2cc(C)nnc2Oc2cccc(Cl)c2)c(C)c1 (racemic) [Compound 4-01, N-[(2RS)-1-(aminooxy)-3-(2,4-dimethylphenyl)propan-2-yl]-3-(3-chlorophenoxy)-6-methylpyridazine-4-carboxamide] |  | chromatographic logP [1, 4]: 2.64
Cc1cc(C)cc(CC(N)CCl)c1.Cl (centres unmarked) [Compound 13-02] | 1.32[a] | 
Cc1ccc(CC(CCl)NC(=O)c2cc(C)nnc2Oc2cccc(C)c2F)c(Cl)c1 (centres unmarked) [Compound 14-02] | 4.43^[a] | 
Cc1cc(C(=O)O)c(Oc2cccc(Cl)c2)nn1 [Compound 1-01] | 1.26^[a] | 
Cc1ccc(C)c(CC(CCl)NC(=NO)c2cc(C)nnc2Oc2cccc(Cl)c2F)c1 (centres unmarked) [Compound 15-05] | 3.84^[a] | 
Cc1ccc(CC(CCl)NC(=O)c2cc(Cl)nnc2Oc2cccc(Cl)c2)c(Cl)c1 (centres unmarked) [Compound 14-12] | 4.97^[a] | 
Cc1ccc(CC(N)CON2C(=O)c3ccccc3C2=O)c(C)c1.O=C(O)C(F)(F)F (centres unmarked) [Compound 2-01] | 1.55[a] | 
O=C(NC(CON1C(=O)c2ccccc2C1=O)Cc1ccc(Cl)cc1Cl)c1cc(Cl)nnc1Oc1cccc(C2CC2)c1F (centres unmarked) [Compound 3-02] | 5.27^[a] | 
Cc1ccc(CC(CCl)NC(=O)c2cc(C)nnc2Oc2cccc(Cl)c2)c(Cl)c1 (racemic) [Compound 14-03, N-[(2RS)-1-chloro-3-(2-chloro-4-methylphenyl)propan-2-yl]-3-(3-chlorophenoxy)-6-methylpyridazine-4-carboxamide] |  | chromatographic logP ([1]; 0.1% formic acid, intermediates of formula (14), Table 17): 4.43
Cc1ccc(C)c(CC(CCl)NC(=O)c2cc(C)nnc2Oc2cccc(Cl)c2F)c1 (centres unmarked) [Compound 14-07] | 4.42^[a] | 
Cc1ccc(CC(CCl)NC(=NO)c2cc(C)nnc2Oc2cccc(Cl)c2)c(Br)c1 (centres unmarked) [Compound 15-01] | 3.84^[a] | 
Cc1cc(C)cc(CC(CCl)NC(=O)c2cc(C)nnc2Oc2cccc(Cl)c2F)c1 (centres unmarked) [Compound 14-06] | 4.59^[a] | 
Cc1ccc(C)c(CC(CCl)NC(=O)c2cc(C)nnc2Oc2cccc(Cl)c2)c1 (centres unmarked) [Compound 14-09] | 4.37^[a] | 
Cc1cc(C(=O)O)c(Oc2cccc(C3(F)CC3)c2)nn1 [Compound 1-05] | 0.68^[a] | 
Cc1ccc(C)c(CC(CCl)NC(=NO)c2cc(C)nnc2Oc2cccc(Cl)c2)c1 (centres unmarked) [Compound 15-07] | 3.74^[a] | 
Cc1cc(C)cc(CC(CCl)NC(=O)c2cc(C)nnc2Oc2cccc(Cl)c2)c1 (centres unmarked) [Compound 14-05] | 4.51^[a] | 

— patent US12543738B2 (Bayer Aktiengesellschaft, priority 2020, dated 2026)
